“Also recorded” adds a separate entry of the source.
What was measured:
Type in all cases: cell-based
MCF-7 cells = experiment: Cell proliferation assay (Cell-Titer Glo) in MCF-7 cells; conditions: 5 μM, 10 days
Description: The same starting number of MCF-7 cells were treated with DMSO, 5 μM EPZ015666 or YS43-22 for up to 10 days. Every two days, fresh compounds were constituted in DMEM medium and added to the cell culture. Relative cell numbers were counted every two days (i.e. day 0, 2, 4, 6, 8 and 10) using Cell-Titer Glo kit (Promega). MCF-7 cells were treated with DMSO, EPZ015666 (5 μM), or YS43-22 (5 μM) for 10 days.

PRMT5 [1] = biological target: T1, PRMT5 (Homo sapiens, UniProt O14744); experiment: Western blot of PRMT5 protein levels in Jurkat cells; design: endogenous in cells; conditions: 5 μM, 6 days
T1 sequence (O14744 whole entry): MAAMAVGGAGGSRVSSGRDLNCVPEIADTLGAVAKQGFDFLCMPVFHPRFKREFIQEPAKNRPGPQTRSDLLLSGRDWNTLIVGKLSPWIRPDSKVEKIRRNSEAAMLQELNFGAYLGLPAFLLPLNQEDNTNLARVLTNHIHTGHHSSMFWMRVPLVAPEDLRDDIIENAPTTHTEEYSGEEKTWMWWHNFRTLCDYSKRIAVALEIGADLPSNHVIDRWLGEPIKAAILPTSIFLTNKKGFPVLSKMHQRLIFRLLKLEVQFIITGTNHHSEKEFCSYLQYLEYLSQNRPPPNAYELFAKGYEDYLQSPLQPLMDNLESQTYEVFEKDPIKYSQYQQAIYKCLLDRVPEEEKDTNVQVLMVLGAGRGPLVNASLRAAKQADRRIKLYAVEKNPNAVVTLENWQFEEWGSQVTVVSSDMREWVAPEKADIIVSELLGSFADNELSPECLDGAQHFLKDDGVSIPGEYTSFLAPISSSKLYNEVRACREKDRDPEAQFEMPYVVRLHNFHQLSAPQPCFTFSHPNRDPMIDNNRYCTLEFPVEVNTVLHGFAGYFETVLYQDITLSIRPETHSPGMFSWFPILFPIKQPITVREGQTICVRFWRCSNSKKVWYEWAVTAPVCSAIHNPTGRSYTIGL
T1 sequence (Q9BQA1 whole entry partner): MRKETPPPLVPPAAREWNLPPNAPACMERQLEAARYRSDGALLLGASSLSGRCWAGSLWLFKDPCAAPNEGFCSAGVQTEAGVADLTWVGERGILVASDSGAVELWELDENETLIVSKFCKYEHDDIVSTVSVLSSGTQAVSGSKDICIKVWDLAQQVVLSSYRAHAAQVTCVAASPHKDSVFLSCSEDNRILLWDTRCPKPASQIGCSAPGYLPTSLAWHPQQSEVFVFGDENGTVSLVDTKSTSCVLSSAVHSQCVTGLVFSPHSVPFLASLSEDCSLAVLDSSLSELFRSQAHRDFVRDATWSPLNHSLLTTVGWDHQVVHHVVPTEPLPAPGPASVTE
Description: MCF-7 cells, HEK293T cells and HeLa cells were cultured in Dulbecco's Modified Eagle Medium (DMEM) supplemented with 10% fetal bovine serum (FBS) in 5% CO2 at 37° C. Jurkat cells were cultured in RPMI 1640 medium supplemented with 10% FBS in 5% CO2 at 37° C. H2171 cells were cultured in HITES medium supplemented with 10% FBS in 5% CO2 at 37° C. HCT116 were cultured in McCoy's 5A medium supplemented with 10% fetal bovine serum (FBS) in 5% CO2 at 37° C. All the cells lines were treated with 5 μM (or indicated concentration) of PRMT5 inhibitor (EPZ015666) or degraders, or equivalent volume of DMSO for 6 days (or indicated time points). Fresh compounds were constituted in medium and used for every 2 days. The antibodies used in this study are: PRMT5 antibody (Active Motif), (3-actin antibody (Sigma), SDMA antibody (collaboration with Cell Signaling Technologies). Cell cultures were harvested at the end of compound treatments and applied subjected to western blotting assay. Briefly, cells were washed with PBS and lysed with RIPA lysis buffer for 20 minutes on ice. Then lysates were centrifuged and the clear supernatant were collected. SDS loading buffer was added to the lysates and then the mixture was boiled at 100° C. for 5 minutes. Samples were loaded to 10% or 12% SDS-PAGE gel and ran at 120V for 1.5 hours. […]

PRMT5 [2] = biological target: T1, PRMT5; experiment: Western blot of PRMT5 protein levels in MCF-7 cells; design: endogenous in cells; host or cells: MCF-7
Description: MCF-7 cells, HEK293T cells and HeLa cells were cultured in Dulbecco's Modified Eagle Medium (DMEM) supplemented with 10% fetal bovine serum (FBS) in 5% CO2 at 37° C. Jurkat cells were cultured in RPMI 1640 medium supplemented with 10% FBS in 5% CO2 at 37° C. H2171 cells were cultured in HITES medium supplemented with 10% FBS in 5% CO2 at 37° C. HCT116 were cultured in McCoy's 5A medium supplemented with 10% fetal bovine serum (FBS) in 5% CO2 at 37° C. All the cells lines were treated with 5 μM (or indicated concentration) of PRMT5 inhibitor (EPZ015666) or degraders, or equivalent volume of DMSO for 6 days (or indicated time points). Fresh compounds were constituted in medium and used for every 2 days. The antibodies used in this study are: PRMT5 antibody (Active Motif), (3-actin antibody (Sigma), SDMA antibody (collaboration with Cell Signaling Technologies). Cell cultures were harvested at the end of compound treatments and applied subjected to western blotting assay. Briefly, cells were washed with PBS and lysed with RIPA lysis buffer for 20 minutes on ice. Then lysates were centrifuged and the clear supernatant were collected. SDS loading buffer was added to the lysates and then the mixture was boiled at 100° C. for 5 minutes. Samples were loaded to 10% or 12% SDS-PAGE gel and ran at 120V for 1.5 hours. Then the proteins were transferred to PVDF membrane and blocked in 5% milk fat at room temperature for 1 hour. Then the membranes were incubated with indicated antibodies at 4° C. overnight. Membranes were washed with PBST buffer three times for 10 minutes each time and incubated with HRP-conjugated (horse radish peroxidase) secondary antibodies at room temperature for 1 hour. Again the membranes were washed with PBST buffer three times for 10 minutes each time. Finally, the indicated proteins on the membranes were visualized with ECL (enhanced chemiluminescence) reagents. MCF-7 cells were treated with DMSO or indicated compounds at 5 μM for 6 days. […] MCF-7 cells were treated with DMSO or indicated serial dilutions of compounds for 6 days. The PRMT5 protein levels were determined by Western blot.

Cc1ncsc1-c1ccc([C@H](C)NC(=O)[C@@H]2C[C@@H](O)CN2C(=O)[C@@H](NC(=O)COCCOCCOCCOCCOCC(=O)N2CC(Nc3cc(C(=O)NC[C@H](O)CN4CCc5ccccc5C4)ncn3)C2)C(C)(C)C)cc1 [YS43-22, N-((S)-3-(3,4-dihydroisoquinolin-2(1H)-yl)-2-hydroxypropyl)-6-((1-((S)-19-((2S,4R)-4-hydroxy-2-(((S)-1-(4-(4-methylthiazol-5-yl)phenyl)ethyl)carbamoyl)pyrrolidine-1-carbonyl)-20,20-dimethyl-17-oxo-3,6,9,12,15-pentaoxa-18-azahenicosanoyl)azetidin-3-yl)amino)pyrimidine-4-carboxamide]
cell growth of MCF-7 cells (MCF-7 cells): significantly reduced; also recorded: significant potency; also recorded: significantly inhibited
PRMT5 protein levels (PRMT5 [1]): very well
suppressing PRMT5 expression (PRMT5 [2]; MCF-7 cells (Examples 90-92)): especially effective
PRMT5 protein levels (PRMT5 [2]; MCF-7 cells, 5 μM, 6 days, Western blot): very well
PRMT5 protein levels, concentration and time dependence (PRMT5 [2]; MCF-7 cells, serial dilutions of compounds, 6 days, Western blot): concentration- and time-dependent; also recorded: significantly reduced
